Measured values taken from PMC9221442, “Design, Synthesis and Characterization of [G10a]-Temporin SHa Dendrimers as Dual Inhibitors of Cancer and Pathogenic Microbes” (Biomolecules, 2022).
In brackets after ≈: the same amount, converted by molar mass. Entries after “also recorded” stand apart in the source; their conditions may differ. Read-outs that look alike come from different tables or passages of the source. Where a SMILES comes first, the peptide text is derived from it. Where no end group is shown, it is not given here.

Assays:
skin cancer cells MNT-1 = type: cell-based, human; conditions: 48 h
Protocol: (§1) The antiproliferative effect of the peptides was determined by using human cells, as previously described. Human cancer cells used in this experiment were ovarian cancer cells A2780 (obtained from ECACC), breast cancer cells MCF-7 (obtained from ATCC), liver cancer cells HepG2 (obtained from ATCC), lung cancer cells A549 (obtained from ATCC), pancreatic cancer cells MiaPaCa (obtained from ATCC), prostate cancer cells PC-3 (obtained from ATCC), and skin cancer cells MNT-1 (generous gift from the National Institute of Health (NIH). Normal human cells used were human lung fibroblasts IMR-90 (obtained from ATCC). All cells were cultured in DMEM which was supplemented with 10% fetal bovine serum (FBS), 1% L-glutamine, and 1% antibiotics (all from Invitrogen) at 37 °C in 5% CO2 incubator. For cytotoxicity assay, cells were maintained in 25 cm^2 flasks. Cells were separated from flasks using trypsin-EDTA solution (from Thermofisher) and counted using Malassez chamber and diluted in culture medium before seeding into 96-well cell-culture plates (Greiner bio-one, Paris, France) at approximately 3000 cells/well. Cells were then treated with increasing concentration of peptides diluted in culture medium (1:2 serial dilution, from 100 µM to 0 µM). After 48 h, medium was aspirated and number of viable cells was colorimetrically determined using resazurin-based assay following manufacturer’s instructions. The fluorescence intensity was measured using microplate reader (Biotek, Santa Clara, CA, USA, Synergy Mx) with an excitation wavelength of 530 nm and an emission wavelength of 590 nm. The fluorescence values were normalized by the controls (untreated cells) and expressed as percent of proliferation. The IC50 values of peptides (i.e., the concentrations causing 50% inhibition of cell proliferation) were determined using GraphPad® Prism 7 software.

[1] = test system: pancreatic cancer cells MiaPaCa; type: cell-based, human; conditions: 48 h
Protocol: as §1

[2] = test system: breast cancer cells MCF-7; type: cell-based, human; conditions: 48 h
Protocol: as §1

[3] = test system: prostate cancer cells PC-3; type: cell-based, human; conditions: 48 h
Protocol: as §1

liver cancer cells HepG2 = type: cell-based, human; conditions: 48 h
Protocol: as §1

[4] = test system: ovarian cancer cells A2780; type: cell-based, human; conditions: 48 h
Protocol: as §1

lung cancer cells A549 = type: cell-based, human; conditions: 48 h
Protocol: as §1

[5] = Stability study at different pH; conditions: pH 2 to pH 14
Protocol: The stability of dendrimers at different pH values and temperatures was also determined. For this, a 510 model digital pH meter (Oakton Eutech) with working electrode of glass material and a Ag/AgCl as reference electrode was used for the pH record. […] Similarly, stability of monomer [G10a]-SHa and its three dendrimers was checked by heating the peptide dendrimers on different temperature ranges, i.e., room temperature, 35 °C, 40 °C, 50 °C and 60 °C.

H. pylori = test system: H. pylori; set-up: method as in PMID 31614561; conditions: cited from earlier work
[6] = test system: human lung fibroblasts IMR-90; type: cell-based; conditions: 48 h
Protocol: as §1

human cancer cells = type: cell-based
Protocol: as §1

Hemolysis assay = type: cell-based, human; conditions: human
Protocol: (§2) The ability of dendrimers and peptides to cause hemolysis was evaluated using human whole red blood cells. Briefly, fresh human erythrocytes (obtained from Divbio Science Europe, NL) were washed 3 times by centrifugation at 800× g for 5 min with sterile phosphate buffer saline (PBS, pH 7.4). The washed erythrocytes were resuspended in complete culture media (DMEM supplemented with 10% FBS) to a final concentration of 8%. Human erythrocytes were then added into sterile 96-well microplates (150 µL per well) and were exposed to increasing concentrations of peptides or dendrimers. After 1 h incubation at 37 °C, plates were centrifuged at 800× g for 5 min. Then, 100 µL of supernatant were carefully transferred to a new 96-well microplate and absorbance was measured at 450 nm using microplate reader. Triton-X100 at 0.1% (v/v) was used as positive control giving 100% hemolysis. The HC50 values of peptides and dendrimers (i.e., the concentration of compound causing 50% of hemolysis) were calculated using GraphPad® Prism 7 software.

human red blood cells = experiment: Hemolysis assay; type: cell-based; conditions: for estimated HC50 (concentration causing 50% of hemolysis): 1 h
Protocol: as §2

[7] = cited from earlier work
[8] = test system: Bacillus subtilis (ATCC 6633); type: cell-based
Protocol: (§3) Experiments were performed in triplicate (n = 3).

[9] = test system: Escherichia coli (ATCC 8739); type: cell-based
Protocol: as §3

[10] = test system: Klebsiella pneumoniae (DSM 26371); type: cell-based
Protocol: as §3

[11] = test system: Staphylococcus aureus (ATCC 6538); type: cell-based
Protocol: as §3

[12] = test system: Acinetobacter baumannii (DSM 30007); type: cell-based
Protocol: as §3

[13] = test system: Enterobacter cloacae (DSM 30054); type: cell-based
Protocol: as §3

[14] = test system: Pseudomonas aeruginosa (ATCC 9027); type: cell-based
Protocol: as §3

[15] = test system: Enterococcus faecium (DSM 20477); type: cell-based
Protocol: as §3

[16] = test system: Helicobacter pylori (ATCC 43504); type: cell-based
Protocol: as §3

[17] = test system: Enterococcus faecalis (DSM 2570); type: cell-based
Protocol: as §3

[18] = Stability study at different temperatures (absorbance spectrum); conditions: room temperature, 35 °C, 40 °C, 50 °C and 60 °C
Protocol: The stability of dendrimers at different pH values and temperatures was also determined. For this, a 510 model digital pH meter (Oakton Eutech) with working electrode of glass material and a Ag/AgCl as reference electrode was used for the pH record. Dilute solutions of HCl and NaOH were added to adjust the pH of the solution from 2 to 12. Similarly, stability of monomer [G10a]-SHa and its three dendrimers was checked by heating the peptide dendrimers on different temperature ranges, i.e., room temperature, 35 °C, 40 °C, 50 °C and 60 °C.

[19] = test system: methicillin-resistant Staphylococcus aureus (MRSA); set-up: method as in PMID 35092568; conditions: cited from earlier work
[20] = Dynamic light scattering (zetasizer); type: physicochemical
Protocol: The dendrimeric solutions of peptides were transferred into transparent cuvette with care to remove bubble formation. The sample was then transferred to the cell holder and study was performed at 90° scattering angle at room temperature. The standard viscosity and refractive index were kept constant and kept at 1.0, 1.33 and 80.4 mPa, respectively.

[21] = B. subtilis (ATCC 6633), 18–24 h, aerobic
[22] = E. coli (ATCC 8739), 18–24 h, aerobic
[23] = K. pneumoniae (DSM 26371), 18–24 h
[24] = S. aureus (ATCC 6538), 18–24 h, aerobic
[25] = A. baumannii (DSM 30007), 18–24 h, aerobic
[26] = E. cloacae (DSM 30054), 18–24 h, aerobic
[27] = P. aeruginosa (ATCC 9027), 18–24 h, aerobic
[28] = H. pylori (ATCC 43504), 18–24 h, micro-aerobic
[29] = E. faecalis (DSM 2570), 18–24 h, micro-aerobic

CC[C@H](C)[C@H](NC(=O)CNC(=O)[C@H](CO)NC(=O)[C@H](CC(C)C)NC(=O)[C@@H](N)Cc1ccccc1)C(=O)N[C@H](C(=O)NCC(=O)N[C@@H](CCSC)C(=O)N[C@@H](CC(C)C)C(=O)N[C@H](C)C(=O)N[C@@H](CCCCN)C(=O)N[C@@H](CC(C)C)C(=O)N[C@@H](Cc1ccccc1)C(N)=O)C(C)C [[G10a]-SHa, H-Phe^1-Leu^2-Ser^3-Gly^4-Ile^5-Val^6-Gly^7-Met^8-Leu^9-D-Ala^10-Lys^11-Leu^12-Phe^13-NH2] (HELM PEPTIDE1{F.L.S.G.I.V.G.M.L.[dA].K.L.F.[am]}$$$$V2.0)
IC50 (skin cancer cells MNT-1): 15.2 ± 0.8 µM | IC50 [1]: 22.4 ± 6.07 µM | IC50 [2]: 15.1 ± 8.51 µM | IC50 [3]: 13 ± 1.99 µM | IC50 (liver cancer cells HepG2): 31.6 ± 1.56 µM | IC50 [4]: 14.8 ± 7.35 µM | IC50 (lung cancer cells A549): 14.5 ± 1.44 µM | stability at different pH [5]: significantly stable at pH values up to 10 and unstable at high pH values of 12 and 14 | antibacterial activity (in words) (H. pylori): active | IC50 [6]: 37.2 ± 2.88 µM | IC50 (human cancer cells; 48 h): 18.1 ± 6.68 µM | hemolysis at 100 µM (Hemolysis assay): 102 ± 6.18% | hemolytic activity (in words) (human red blood cells): high hemolytic activity | estimated HC50 (concentration causing 50% of hemolysis) (human red blood cells; red cells of human): 43.66 ± 1.01 µM | serum stability (in words) [7]: good serum stability | minimal inhibitory concentration (MIC) ([8]; ATCC 6633): 3.12 µM (≈ 4.35 µg/mL) | minimal inhibitory concentration (MIC) [8, 21]: 3.12 µM (≈ 4.35 µg/mL) | minimal inhibitory concentration (MIC) ([9]; ATCC 8739): 100 µM (≈ 139 µg/mL) | minimal inhibitory concentration (MIC) [9, 22]: 100 µM (≈ 139 µg/mL) | minimal inhibitory concentration (MIC) ([10]; DSM 26371): 100 µM (≈ 139 µg/mL) | minimal inhibitory concentration (MIC) [10, 23]: 100 µM (≈ 139 µg/mL) | minimal inhibitory concentration (MIC) ([11]; ATCC 6538): 3.12 µM (≈ 4.35 µg/mL) | minimal inhibitory concentration (MIC) [11, 24]: 3.12 µM (≈ 4.35 µg/mL) | minimal inhibitory concentration (MIC) [12, 25]: 12.5 µM (≈ 17.4 µg/mL) | minimal inhibitory concentration (MIC) ([12]; DSM 30007): 12.5 µM (≈ 17.4 µg/mL) | minimal inhibitory concentration (MIC) ([13]; DSM 30054): >100 µM | minimal inhibitory concentration (MIC) [13, 26]: > 100 µM | minimal inhibitory concentration (MIC) ([14]; ATCC 9027): >100 µM | minimal inhibitory concentration (MIC) [14, 27]: > 100 µM | minimal inhibitory concentration (MIC) ([15]; DSM 20477): >100 µM | minimal inhibitory concentration (MIC) ([16]; ATCC 43504): 3.12 µM (≈ 4.35 µg/mL) | minimal inhibitory concentration (MIC) [16, 28]: 3.12 µM (≈ 4.35 µg/mL) | minimal inhibitory concentration (MIC) ([17]; DSM 2570): 25 µM (≈ 34.9 µg/mL) | minimal inhibitory concentration (MIC) [17, 29]: 25 µM (≈ 34.9 µg/mL) | stability at different temperatures [18]: considerable stability up to 60 °C; also recorded: higher stability up to 60 °C | antibacterial activity (in words) [19]: active | Pdi Values (polydispersity index) ([20]; DLS): 0.628 | Z-Average ([20]; DLS, room temperature): 63.25 nm·days | Zeta Potential ([20]; zetasizer): −34.1 mV

FLSGIVGMLGKLF-NH2 [Temporin SHa, H-Phe^1-Leu^2-Ser^3-Gly^4-Ile^5-Val^6-Gly^7-Met^8-Leu^9-Gly^10-Lys^11-Leu^12-Phe^13-NH2]
IC50 (skin cancer cells MNT-1; Skin Cancer (MNT-1), read-out: IC50 (cell proliferation)): > 100 µM | IC50 ([1]; Pancreatic Cancer (MiaPaCa), read-out: IC50 (cell proliferation)): > 100 µM | IC50 ([2]; Breast Cancer (MCF-7), read-out: IC50 (cell proliferation)): 20.4 ± 5.64 µM | IC50 ([3]; Prostate Cancer (PC-3), read-out: IC50 (cell proliferation)): > 100 µM | IC50 (liver cancer cells HepG2; Liver Cancer (HepG-2), read-out: IC50 (cell proliferation)): > 100 µM | IC50 ([4]; Ovarian Cancer (A2780), read-out: IC50 (cell proliferation)): > 100 µM | IC50 (lung cancer cells A549; Lung Cancer (A549), read-out: IC50 (cell proliferation)): > 100 µM | IC50 ([6]; Human Normal Fibroblast (IMR-90), read-out: IC50 (cell proliferation)): > 100 µM | IC50 (human cancer cells; all cells except breast cancer MCF-7, up to 100 µM, read-out: IC50 on the human cells tested other than MCF-7): > 100 µM | hemolysis at 1 h, 100 µM (Hemolysis assay; at 100 µM, 1 h, 37 °C, relative to Triton X-100 0.1%): 24.5 ± 1.88% | estimated HC50 (concentration causing 50% of hemolysis) (human red blood cells; human erythrocytes, 37 °C): 266.20 ± 41.27 µM | minimal inhibitory concentration (MIC) [8, 21]: 1.56 µM | minimal inhibitory concentration (MIC) [9, 22]: 50 µM | minimal inhibitory concentration (MIC) [10, 23]: 50 µM | minimal inhibitory concentration (MIC) [11, 24]: 3.12 µM | minimal inhibitory concentration (MIC) [12, 25]: 6.25 µM | minimal inhibitory concentration (MIC) [13, 26]: 50 µM | minimal inhibitory concentration (MIC) [14, 27]: 50 µM | minimal inhibitory concentration (MIC) ([15]; E. faecium (DSM 20477), 18–24 h, micro-aerobic): 6.25 µM | minimal inhibitory concentration (MIC) [16, 28]: 3.12 µM | minimal inhibitory concentration (MIC) [17, 29]: 12.5 µM
